Series [1] concerns mesenteric artery. The series can be described thus: Relaxation of mesenteric artery (KCl-contracted). Conditions: Oryctolagus cuniculus; rabbit mesenteric artery contracted with 15 to 20 mM KCl; read-out: ED50 (concentration attaining 50% of complete relaxation).
In series [2] the test system is coronary artery. Nature of the series: Blood flow increase of coronary artery in anesthetized dogs, i.v. Type of series: in vivo, dog (mongrel). Conditions: Canis lupus familiaris, iv, dog. As to the method: (§1) 2. Blood Flow Increase of Coronary, Vertebral and Femoral Arteries
(§2) A plethysmographic probe (manufactured and sold by NIHON KODEN CO., LTD., Japan) was mounted on the coronary, vertebral and femoral arteries, and blood flow was measured by means of an electromagnetic blood flowmeter (type:MF-27, manufactured and sold by NIHON KODEN CO., LTD., Japan). Under these conditions, the compounds of the present invention were intravenously administered through a polyethylene tube inserted to a femoral veinlet, and the change in blood flow was measured for 30 minutes by means of the electromagnetic blood flowmeter.
(§3) The effects (dilation of the arteries) of the compounds of the present invention on blood flow in coronary, vertebral and femoral arteries were examined according to the method as mentioned hereinbefore.

Series [3] relates to vertebral artery. The series can be described thus: Blood flow increase of vertebral artery in anesthetized dogs, i.v. As to conditions: Canis lupus familiaris, iv, dog. Type of series: in vivo, dog (mongrel). The procedure: as §1, §2, §3
Series [4] concerns femoral artery. The series can be described thus: Blood flow increase of femoral artery in anesthetized dogs, i.v. Type of series: in vivo, dog (mongrel). Conditions: Canis lupus familiaris, iv, dog. The procedure: as §1, §2, §3
The test system of series [5] is bronchial tubes. The series can be described thus: Inhibition of histamine contraction of bronchial tubes (relaxation of bronchial tubes). As to conditions: Cavia porcellus; guinea pig bronchial tube, 10 μM histamine; Table 16; read-out: ED50 (50% decrease of histamine contraction of bronchial tubes).
Series [6] is described as follows: Acute toxicity in mice. As to conditions: mouse, in vivo, male mice. As to the method: (§4) Using ddY male mice and Wistar male rats, the acute toxicity of the compounds of the present invention was examined with respect to LD50 according to the method proposed by K. Takagi et al. (K. Takagi and H. Ozawa, "Expeprimental Techniques in Pharmacology," p200-206 (1960), NANZANDO CO., LTD., Japan).
(§5) Compounds of the present invention were tested with respect to acute toxicities according to the method as mentioned hereinbefore.

Series [7] is described as follows: Acute toxicity in rats. Conditions: in vivo, male rat. The procedure: as §4, §5

The structures appear in SMILES notation.

For orientation: LD50 means the dose at which mortality reaches 50%. Low readings indicate a more toxic substance, high ones a less toxic substance.

For the compound `NC1CCCN(S(=O)(=O)c2cccc3cnccc23)C1` (stereo not drawn) [Compound (63), 1-(5-isoquinolinesulfonyl)-3-aminopiperidine], the EC50 in series [1] and in series [5] was 3000 nM throughout. In addition, the values for the change in vivo at 1 mg/kg in series [2] (1.0 mg/kg), in series [3] (1.0 mg/kg) and in series [4] (1.0 mg/kg) were 128%, 95% and 38%, respectively. Further, the change in vivo at 0.3 mg/kg in series [2] (i.v., 0.3 mg/kg, read-out: Increase in coronary artery blood flow) worked out at 91%; in series [3] (i.v., 0.3 mg/kg, read-out: Increase in vertebral artery blood flow), 72%; in series [4] (i.v., 0.3 mg/kg, read-out: Increase in femoral artery blood flow), 20%. Also, the median lethal dose (LD50) in series [6] (iv) was 176 mg/kg; in series [6] (po) it was 1120 mg/kg; in series [7] (iv) it was 194 mg/kg; in series [7] (po), 1220 mg/kg.

(Values after patent US4798897A, “Isoquinoline derivatives” (Asahi Kasei Kogyo Kabushiki Kaisha, priority 1987, dated 1989).)
